Results: patent publication US20080200515A1, “SOLID STATE FORMS OF ENANTIOPURE ILAPRAZOLE” (TAP PHARMACEUTICAL PRODUCTS INC., priority 2006, published 2008)

Columns and labels:
[1] = tested on: acid-related gastric and duodenal ulcers; assay: Phase 2 clinical studies with ilaprazole in patients with gastric-acid related disorders; assay type: in vivo, human; conditions: at the doses studied
gastric acid = assay: Phase 1 clinical studies with ilaprazole: suppression of gastric acid; assay type: in vivo, human; conditions: at the doses studied

COc1ccnc(C[S+]([O-])c2nc3cc(-n4cccc4)ccc3[nH]2)c1C (stereo not drawn) [ilaprazole, 2[[(4-methoxy-3-methyl-2-pyridinyl)-methyl]sulfinyl]-5-(1H-pyrrol-1-yl) 1H-Benzimidazole]
healing of acid-related gastric and duodenal ulcers [1]: promoted rapid healing | symptomatic relief ([1]; patients with gastric-acid related disorders): provided symptomatic relief | suppression of gastric acid (gastric acid): suppression of gastric acid occurs over a 24-hour period
